From ChEMBL document CHEMBL1201862, “PubChem BioAssay data set” (2004)
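These data come from cells grown in 96-well plates and exposed to compound for 48 hours at five concentrations. The concentration for 50% growth inhibition is given as GI50.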 Active and inactive are the calls of the source. No stated cut-off is given here; in the data, active = GI50 up to about 1.1 µM and inactive = higher.

What was measured:
Assay in all cases: growth of human tumour cells (NCI), 48 h
[1] = tested on: A549
[2] = tested on: COLO 205
[3] = tested on: HOP-62
[4] = tested on: IGROV-1
[5] = tested on: KM12
[6] = tested on: NCI-H23
[7] = tested on: NCI-H460
[8] = tested on: OVCAR-3
[9] = tested on: OVCAR-4
[10] = tested on: OVCAR-8
[11] = tested on: RPMI-8226
[12] = tested on: SF-268
[13] = tested on: SF-295
[14] = tested on: SK-MEL-2
[15] = tested on: SK-OV-3
[16] = tested on: SN12C
[17] = tested on: U-251
[18] = tested on: UACC-257
[19] = tested on: UACC-62
[20] = tested on: UO-31

Structure (SMILES) | GI50 [1] | GI50 [2] | GI50 [3] | GI50 [4] | GI50 [5] | GI50 [6] | GI50 [7] | GI50 [8] | GI50 [9] | GI50 [10] | GI50 [11] | GI50 [12] | GI50 [13] | GI50 [14] | GI50 [15] | GI50 [16] | GI50 [17] | GI50 [18] | GI50 [19] | GI50 [20]
O=[N+]([O-])c1ccc(C2=NOC(c3ccccc3F)N2C23CC4CC(CC(C4)C2)C3)cc1 (stereo not given) | > 100 µM (inactive) | > 100 µM (inactive) | > 100 µM (inactive) | > 100 µM (inactive) | > 100 µM (inactive) | > 100 µM (inactive) | > 100 µM (inactive) | > 100 µM (inactive) | > 100 µM (inactive) | > 100 µM (inactive) | 98.9 µM (inactive) | > 100 µM (inactive) | > 100 µM (inactive) | > 100 µM (inactive) | > 100 µM (inactive) | > 100 µM (inactive) | > 100 µM (inactive) | > 100 µM (inactive) | > 100 µM (inactive) | > 100 µM (inactive)
COc1c(CC(C)O)c2c3c(CC(C)O)c(OC)c(=O)c4c(O)cc5c(c6c(cc(O)c(c1=O)c62)OCO5)c43 (stereo not given) [CERCOSPORIN] | 1.65 µM (inactive) | 0.158 µM (active) | 1.99 µM (inactive) | 1.69 µM (inactive) | 1.62 µM (inactive) | 1.4 µM (inactive) | 0.45 µM (active) | 1.87 µM (inactive) | 1.38 µM (inactive) | 1.74 µM (inactive) | 2.1 µM (inactive) | 1.81 µM (inactive) | 1.91 µM (inactive) | 1.55 µM (inactive) | 4.14 µM (inactive) | 1.57 µM (inactive) | 1.72 µM (inactive) | 1.34 µM (inactive) | 1.78 µM (inactive) | 2.14 µM (inactive)
O=Cc1cc(O)ccc1Br | > 100 µM (inactive) | 41.7 µM (inactive) | 9.71 µM (inactive) | 28.1 µM (inactive) | 23.5 µM (inactive) | 21.7 µM (inactive) | 19.7 µM (inactive) | 6.3 µM (inactive) | 15 µM (inactive) | 5.05 µM (inactive) | 2.81 µM (inactive) | 9.93 µM (inactive) | 7 µM (inactive) | 44.4 µM (inactive) | 34.7 µM (inactive) | 19.8 µM (inactive) | 3.74 µM (inactive) | 41.5 µM (inactive) | 6.9 µM (inactive) | 19.5 µM (inactive)
COc1ccc(Nc2nc(N)c(C(=O)c3c[nH]c4ccccc34)s2)cc1 | 1.41 µM (inactive) | 0.731 µM (active) | 8.02 µM (inactive) | 1.13 µM (inactive) | 0.689 µM (active) | 3.4 µM (inactive) | 0.942 µM (active) | 0.745 µM (active) | 5.42 µM (inactive) | 2.36 µM (inactive) | 0.998 µM (active) | 6.84 µM (inactive) | 0.5 µM (active) | 3.98 µM (inactive) | 4.51 µM (inactive) | 3.61 µM (inactive) | 1.58 µM (inactive) | 7.85 µM (inactive) | 5.79 µM (inactive) | 3.52 µM (inactive)
Cn1c(=O)c2nc3sc4c(n3c2n(C)c1=O)C(=O)c1ccccc1C4=O | > 81.7 µM (inactive) | > 73.5 µM (inactive) | > 38.9 µM (inactive) | > 54.3 µM (inactive) | > 100 µM (inactive) | 57.3 µM (inactive) | > 71.1 µM (inactive) | 12.1 µM (inactive) | > 64.6 µM (inactive) | > 58.6 µM (inactive) | 38.4 µM (inactive) | > 78.5 µM (inactive) | > 72.3 µM (inactive) | > 55.5 µM (inactive) | > 47.5 µM (inactive) | > 69.2 µM (inactive) | 39 µM (inactive) | > 88.9 µM (inactive) | > 100 µM (inactive) | > 66.2 µM (inactive)
CCN(CC)CCn1nc2c3c(c(NCCN)ccc31)Sc1cc(O)ccc1-2 | 0.176 µM (active) | 0.865 µM (active) | 0.416 µM (active) | 0.505 µM (active) | 0.615 µM (active) | 0.451 µM (active) | 0.0715 µM (active) | 2.43 µM (inactive) | 0.528 µM (active) | 0.535 µM (active) | 0.377 µM (active) | 0.493 µM (active) | 0.861 µM (active) | 1.28 µM (inactive) | 1.25 µM (inactive) | 0.372 µM (active) | 0.254 µM (active) | 1.84 µM (inactive) | 0.371 µM (active) | 12.3 µM (inactive)
COc1nc2c(N3CCCC3)nc(N3CCNCC3)nc2nc1NCc1ccccc1 | 2.01 µM (inactive) | 0.524 µM (active) | 0.855 µM (active) | 2.03 µM (inactive) | 1.61 µM (inactive) | 2.16 µM (inactive) | 1.95 µM (inactive) | 0.755 µM (active) | 3.03 µM (inactive) | 2.83 µM (inactive) | 1.69 µM (inactive) | 2.03 µM (inactive) | 1.74 µM (inactive) | 1.66 µM (inactive) | 2.05 µM (inactive) | 2.03 µM (inactive) | 1.35 µM (inactive) | 1.74 µM (inactive) | 1.86 µM (inactive) | 1.48 µM (inactive)
O=C1c2ccccc2C(=O)c2[nH]c(=O)c(/C=N/Nc3ccc([N+](=O)[O-])cc3)nc21 | 3.52 µM (inactive) | 7.98 µM (inactive) | 2.28 µM (inactive) | 14.4 µM (inactive) | 5.73 µM (inactive) | 1.63 µM (inactive) | 2.06 µM (inactive) | 2.92 µM (inactive) | 18.4 µM (inactive) | 15.8 µM (inactive) | > 37 µM (inactive) | 8.59 µM (inactive) | 3.32 µM (inactive) | 3.86 µM (inactive) | 9.73 µM (inactive) | 11.9 µM (inactive) | 7.24 µM (inactive) | 2.15 µM (inactive) | 2.09 µM (inactive) | 6.58 µM (inactive)
Cn1c(=O)c2[nH]c(/N=N/N3CCN(CCO)CC3)nc2n(C)c1=O | > 100 µM (inactive) | > 100 µM (inactive) | > 100 µM (inactive) | > 100 µM (inactive) | > 100 µM (inactive) | > 100 µM (inactive) | > 100 µM (inactive) | > 100 µM (inactive) | > 100 µM (inactive) | > 100 µM (inactive) | > 100 µM (inactive) | > 100 µM (inactive) | > 100 µM (inactive) | > 100 µM (inactive) | > 100 µM (inactive) | > 100 µM (inactive) | > 100 µM (inactive) | > 100 µM (inactive) | > 100 µM (inactive) | > 100 µM (inactive)
NN=C(S)Nc1cccc(Cl)c1 | > 100 µM (inactive) | 89.7 µM (inactive) | > 100 µM (inactive) | > 100 µM (inactive) | 82 µM (inactive) | > 100 µM (inactive) | 64.1 µM (inactive) | 29.3 µM (inactive) | 39.9 µM (inactive) | 81.5 µM (inactive) | > 100 µM (inactive) | > 100 µM (inactive) | 69.2 µM (inactive) | 79.4 µM (inactive) | > 100 µM (inactive) | 94.4 µM (inactive) | > 100 µM (inactive) | > 100 µM (inactive) | > 100 µM (inactive) | > 100 µM (inactive)
